{"source": "patent US11975009B2", "about": "“Use of zinc porphyrin as an antimicrobial” (ZNABLE LLC, priority 2022, dated 2024)", "key": {"[1]": {"system": "PsA", "assay": "Activity of extant antibiotics together with ZnPor (II)", "conditions": "pre-treated by ZnPor (II)"}, "[2]": {"system": "PsA biofilms and planktonic cells", "conditions": "cited from earlier work"}, "[3]": {"system": "pqsA mutant biofilms", "conditions": "mutant with little to no eDNA; cited from earlier work"}}, "data": [{"smiles": "CN[C@H](CC(C)C)C(=O)N[C@H]1C(=O)N[C@@H](CC(N)=O)C(=O)N[C@H]2C(=O)N[C@H]3C(=O)N[C@H](C(=O)N[C@H](C(=O)O)c4cc(O)cc(O)c4-c4cc3ccc4O)[C@H](O)c3ccc(c(Cl)c3)Oc3cc2cc(c3O[C@@H]2O[C@H](CO)[C@@H](O)[C@H](O)[C@H]2O[C@H]2C[C@](C)(N)[C@H](O)[C@H](C)O2)Oc2ccc(cc2Cl)[C@H]1O", "note": "[Vancomycin, reference compound]", "values": [{"measurement": "killing of PsA", "setting": "[1]", "result": "kills"}]}, {"smiles": "C[n+]1ccc(-c2c3nc(c(-c4cc[n+](C)cc4)c4ccc([nH]4)c(-c4cc[n+](C)cc4)c4nc(c(-c5cc[n+](C)cc5)c5ccc2[nH]5)C=C4)C=C3)cc1.Cc1ccc(S(=O)(=O)[O-])cc1.Cc1ccc(S(=O)(=O)[O-])cc1.Cc1ccc(S(=O)(=O)[O-])cc1.Cc1ccc(S(=O)(=O)[O-])cc1", "note": "[TMP, 5,10,15,20-tetrakis(1-methylpyridino)-21H,23H-porphine, tetra-p-tosylate salt]", "values": [{"measurement": "toxicity to bacterial cells", "setting": "[2]; absence of photoactivation", "result": "little to no toxicity"}, {"measurement": "effect on antibiotic sensitivity of biofilm-associated cells", "setting": "[2]; light activation not required", "result": "sensitive to tobramycin, gentamycin, and vancomycin"}, {"measurement": "efficacy against PsA biofilms and planktonic cells", "setting": "[2]; when photoactivated", "result": "highly effective"}, {"measurement": "effect on PsA biofilms", "setting": "[2]; without light activation", "result": "disruption and detachment from the substrata"}, {"measurement": "effect on pqsA mutant biofilms", "setting": "[3]", "result": "no effect"}]}]}
